Data: ChEMBL document CHEMBL3400045, “Synthesis and ABCG2 inhibitory evaluation of 5-N-acetylardeemin derivatives” (Bioorg Med Chem, 2015)

What was measured:
Type in all cases: cell-based
ABCG2 [1] = target: T1, ABCG2 (Homo sapiens, UniProt Q9UNQ0); experiment: Inhibition of ABCG2 (unknown origin) transfected in Flp-In-293 cells assessed as inhibition of Hoechst 33342 efflux measured as inhibition ratio after 90 mins by flow cytometry; design: concentration or dose not given beside the values; conditions: Flp-In-293 cells transfected with ABCG2, probe Hoechst 33342
T1 sequence (Q9UNQ0 whole entry): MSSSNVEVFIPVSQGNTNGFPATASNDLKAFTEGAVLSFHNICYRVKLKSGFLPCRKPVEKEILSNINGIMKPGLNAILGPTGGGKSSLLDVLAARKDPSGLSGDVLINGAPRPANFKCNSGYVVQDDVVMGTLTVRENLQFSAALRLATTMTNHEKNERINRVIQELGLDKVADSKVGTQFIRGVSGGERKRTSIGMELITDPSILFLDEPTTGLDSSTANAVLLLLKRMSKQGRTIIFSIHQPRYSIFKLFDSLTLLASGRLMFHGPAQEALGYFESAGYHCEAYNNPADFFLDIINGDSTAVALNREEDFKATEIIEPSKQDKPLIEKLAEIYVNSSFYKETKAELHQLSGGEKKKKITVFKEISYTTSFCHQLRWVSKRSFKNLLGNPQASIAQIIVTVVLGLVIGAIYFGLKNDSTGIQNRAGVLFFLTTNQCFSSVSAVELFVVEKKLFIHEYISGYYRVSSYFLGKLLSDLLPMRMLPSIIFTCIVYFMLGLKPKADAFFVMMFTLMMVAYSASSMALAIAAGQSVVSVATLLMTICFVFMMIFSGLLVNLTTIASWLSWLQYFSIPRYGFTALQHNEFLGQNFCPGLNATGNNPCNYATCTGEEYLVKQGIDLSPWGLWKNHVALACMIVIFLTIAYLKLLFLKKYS

[2] = target: T2, Broad substrate specificity ATP-binding cassette transporter ABCG2 (Homo sapiens, UniProt Q9UNQ0); experiment: (§1) Inhibition of ABCG2 (unknown origin) transfected in Flp-In-293 cells assessed as inhibition of Hoechst 33342 efflux after 90 mins by flow cytometry; conditions: 1.5 h
T2 sequence (Q9UNQ0 whole entry): T1 sequence (Q9UNQ0 whole entry)

ABCG2 [3] = target: T1, ABCG2; experiment: as §1; conditions: Flp-In-293 cells transfected with ABCG2, probe Hoechst 33342

Row | inhibition at 1.5 h (ABCG2 [1]) [%] | inhibition (INH) [2] | inhibition at 1.5 h (ABCG2 [3]) [%] | Compound
1 | 34.6 | Active | – | C=CC(C)(C)[C@@]12C[C@H]3c4nc5ccc(F)cc5c(=O)n4[C@H](C)C(=O)N3[C@@H]1N(C(C)=O)c1ccccc12
2 | 66.8 | Active | – | C=CC(C)(C)[C@@]12C[C@H]3c4nc5ccc(Cl)cc5c(=O)n4[C@H](C)C(=O)N3[C@@H]1N(C(C)=O)c1ccccc12
3 | 64.5 | Active | – | C=CC(C)(C)[C@@]12C[C@H]3c4nc5ccc(Br)cc5c(=O)n4[C@H](C)C(=O)N3[C@@H]1N(C(C)=O)c1ccccc12
4 | – | Active | – | C=CC(C)(C)[C@@]12C[C@H]3c4nc5cc(Br)ccc5c(=O)n4[C@H](C)C(=O)N3[C@@H]1N(C(C)=O)c1ccccc12
5 | 35.4 | Active | – | C=CC(C)(C)[C@@]12C[C@H]3c4nc5ccc(I)cc5c(=O)n4[C@H](C)C(=O)N3[C@@H]1N(C(C)=O)c1ccccc12
6 | – | Active | – | C=CC(C)(C)[C@@]12C[C@H]3c4nc5ccc(OC)cc5c(=O)n4[C@H](C)C(=O)N3[C@@H]1N(C(C)=O)c1ccccc12
7 | – | Active | – | C=CC(C)(C)[C@@]12C[C@H]3c4nc5ccc(C#N)cc5c(=O)n4[C@H](C)C(=O)N3[C@@H]1N(C(C)=O)c1ccccc12
8 | – | Active | – | C=CC(C)(C)[C@@]12C[C@H]3c4nc5ccc(-c6ccccc6)cc5c(=O)n4[C@H](C)C(=O)N3[C@@H]1N(C(C)=O)c1ccccc12
9 | – | Active | – | C=CC(C)(C)[C@@]12C[C@H]3c4nc5ccccc5c(=O)n4[C@H](C)C(=O)N3[C@@H]1N(C(C)=O)c1ccc(Br)cc12
10 | – | Active | – | C=CC(C)(C)[C@@]12C[C@H]3c4nc5ccccc5c(=O)n4[C@H](C)C(=O)N3[C@@H]1N(C(C)=O)c1ccc(C3CCCCC3)cc12
11 | – | Active | – | C=CC(C)(C)[C@@]12C[C@H]3c4nc5ccccc5c(=O)n4[C@H](C)C(=O)N3[C@@H]1N(C(C)=O)c1ccc(-c3ccccc3)cc12
12 | – | Active | – | C=CC(C)(C)[C@@]12C[C@H]3c4nc5ccccc5c(=O)n4[C@H](C)C(=O)N3[C@@H]1N(C(C)=O)c1ccc(-c3ccc(C)cc3)cc12
13 | – | Active | – | C=CC(C)(C)[C@@]12C[C@H]3c4nc5ccccc5c(=O)n4[C@H](C)C(=O)N3[C@@H]1N(C(C)=O)c1ccc(-c3ccc(OC)cc3)cc12
14 | – | Active | – | C=CC(C)(C)[C@@]12C[C@H]3c4nc5ccccc5c(=O)n4[C@H](C)C(=O)N3[C@@H]1N(C(C)=O)c1ccc(-c3ccc(C#N)cc3)cc12
15 | – | Active | – | C=CC(C)(C)[C@@]12C[C@H]3c4nc5ccccc5c(=O)n4[C@H](C)C(=O)N3[C@@H]1N(C(C)=O)c1ccc(-c3ccc(-c4ccccc4)cc3)cc12
16 | – | – | 27.5 | C=CC(C)(C)[C@]12C[C@@H](C(=O)Nc3ccccc3C(=O)OC)N(C(=O)[C@@H](C)NC(=O)OC(C)(C)C)[C@H]1N(C(C)=O)c1ccccc12

Row | Compound | inhibition at 1.5 h (ABCG2 [1]) [%] | inhibition (INH) [2] | inhibition at 1.5 h (ABCG2 [3]) [%]
17 | C=CC(C)(C)[C@@]12C[C@H]3c4nc5ccccc5c(=O)n4[C@H](C)C(=O)N3[C@@H]1N(C(C)=O)c1ccccc12 | 21.8 | – | –
